Patent US7833795B2, “Assessment of cardiovascular risk using isoprostane biomarkers and COX-2 selective inhibitors” (The Trustees of the University of Pennsylvania, priority 2004, dated 2010)

How the values were obtained:
Type in all cases: in vivo, rat
Male Fisher 344 rats [1] = experiment: Plasma MDA, TBA colorimetric assay with 3rd derivative spectroscopy; settings: plasma
Protocol: (§1) Animals and treatment protocol: Male Fisher 344 rats (260-280 g) obtained from Charles River Laboratories (Raleigh, N.C.) were used in all experiments. The animals were housed three to a cage. Autoclaved hardwood bedding was used in solid-bottom polycarbonate cages with filter tops. Animal rooms were maintained at 20-25° C. with 35-70% relative humidity with alternating 12-hour light and dark cycles. The rats had free access to deionized, reverse-osmosis-treated water and received autoclaved NIH 31 rodent chow (Zeigler Bros., Gardners, Pa.) ad libitum. For all experiments, rats were fasted overnight and then administered intraperitoneal injections of carbon tetrachloride in canola oil. Control rats received an equal volume of canola oil. Fasting continued throughout the experiment. Rats were anesthetized with Nembutal (0.1 ml/100 g body weight) and 5 ml blood was removed from the dorsal aorta proximal to its bifurcation into the common iliac arteries.
(§2) Carbon tetrachloride (CCL4) treatment: Animals from each of the three dose groups (Control-canola oil, 120 mg/kg CCl4 i.p. and 1200 mg/kg CCl4 i.p.) were investigated at three time points (2, 7, and 16 hours after CCl4 injection). Indomethacin-pretreated rats were also investigated at the same three time points, and the meclofenamic acid-pretreated rats were investigated at one time point (7 hours). Each group consisted of five rats for each analysis, except the meclofenamic acid pretreatment group which consisted of six rats. Animal treatment, sample preparation, assessment of liver histology and serum enzyme activities are described elsewhere (Kadiiska et al., 2000, Free Radic. Biol. Med. 28: 838-845; Jackson, 1989, J. Pharmacol. Exp. Ther. 250: 9-21) and were carried out at NIEHS, Research Triangle Park, N.C.
(§3) Plasma sample preparation: Blood (5 ml) was drawn through single draw Vacutainer® needles (21 Gauge) into open Vacutainer® blood collection tubes containing heparin. The tubes were gently inverted 2-3 times for mixing and immediately placed on ice. Blood was centrifuged (2,000 rpm for 10 minutes at 4° C.) no more than 30 minutes after collection, and the plasma was collected, frozen on dry ice and stored at −70° C.
Two colorimetric-based assays, using third derivative spectroscopy, were also used to measure MDA in plasma. The TBA colorimetric assay is designed to measure free MDA and MDA-protein adducts (Schiff base), and therefore includes mild acid hydrolysis. The Bioxytech® LPO-586™ colorimetric assay is based upon the reaction of the chromogenic reagent N-methyl-2-phenylindole (NMPI) with MDA at 45° C. One molecule of free MDA combines with 2 molecules of the chromogenic agent to produce a stable chromophore with a maximal absorbance at 586 nm. In both assays, the concentration of MDA was determined with 3rd derivative spectroscopy. Both assays were developed by OXIS Research Inc., Portland, Oreg., and were performed at OXIS and at Loyola University Medical Center, Maywood, Ill.

Male Fisher 344 rats [2] = experiment: Plasma free 8-iso-PGF2α by GC/NICI-MS; settings: for Free 8-iso-PGF2a (by GC-MS): plasma
Protocol: as §1
Indomethacin pretreatment: The indomethacin regimen used has been previously shown to inhibit COX activity in rats by 90% (dose of 5 mg/kg s.c. 24 hours, 12 hours, and 2 hours prior to the injection of CCl4) (Jackson, 1989, J. Pharmacol. Exp. Ther. 250: 9-21). An additional booster dose was injected 8 hours after the last injection of CCl4 for the measurements performed 16 hours after treatment with CCl4.
Meclofenamic acid pretreatment: Meclofenamic acid was injected at a dose of 5 mg/kg i.p. 12 h and 2 h prior to the injection of CCl4.
as §2, §3
Two slightly different methods developed in two different laboratories were used to measure the effect of CCl4 on the plasma levels of free 8-iso-PGF2α, and the sum of free plus esterified 8-iso-PGF2α (also known as 8-epi-PGF2α and iPF2α-III and 15-F2t-IsoP). Free 8-iso-PGF2α concentrations in plasma were determined by gas chromatography/negative ion chemical ionization mass spectrometry (GC/NICI-MS) by the method of Morrow et al. (1999, Methods Enzymol. 300: 3-12). Briefly, [2H4] 8-iso-PGF2α internal standard was added to plasma and F2-isoprostanes were extracted with a C18 Sep-Pak® Cartridge (Waters Associates, Milford, Mass.). The extracted F2-isoprostanes were converted to pentafluorobenzyl ester and purified by TLC after which they were converted to a trimethylsilyl ether derivative and subsequently analyzed by GC-MS. The assay was developed and performed at Vanderbilt University, Nashville, Tenn.

Male Fisher 344 rats [3] = experiment: Plasma MDA, Bioxytech LPO-586 colorimetric assay; settings: both CCl4 doses
Protocol: as §1, with “arteries. […]” for “arteries.”
Two colorimetric-based assays, using third derivative spectroscopy, were also used to measure MDA in plasma. […] One molecule of free MDA combines with 2 molecules of the chromogenic agent to produce a stable chromophore with a maximal absorbance at 586 nm. In both assays, the concentration of MDA was determined with 3rd derivative spectroscopy. […]

Male Fisher 344 rats [4] = experiment: Comet assay of blood leucocyte DNA; settings: CCl4 120 and 1200 mg/kg; 2, 7, 16 h
Protocol: as §1
Carbon tetrachloride (CCL4) treatment: Animals from each of the three dose groups (Control-canola oil, 120 mg/kg CCl4 i.p. and 1200 mg/kg CCl4 i.p.) were investigated at three time points (2, 7, and 16 hours after CCl4 injection). Indomethacin-pretreated rats were also investigated at the same three time points, and the meclofenamic acid-pretreated rats were investigated at one time point (7 hours). […]

ClC(Cl)(Cl)Cl [CCl4, Carbon tetrachloride]
plasma MDA (Male Fisher 344 rats [1]; CCl4 120 mg/kg i.p., 2 h): 0.268 µM
plasma MDA (Male Fisher 344 rats [1]; CCl4 120 mg/kg i.p., 7 h): 0.209 µM
plasma MDA (Male Fisher 344 rats [1]; CCl4 120 mg/kg i.p., 16 h): 0.214 µM
plasma MDA (Male Fisher 344 rats [1]; CCl4 1200 mg/kg i.p., 2 h): 0.686 µM
plasma MDA (Male Fisher 344 rats [1]; CCl4 1200 mg/kg i.p., 7 h): 0.274 µM
plasma MDA (Male Fisher 344 rats [1]; CCl4 1200 mg/kg i.p., 16 h): 0.156 µM
Free 8-iso-PGF2a (by GC-MS) (Male Fisher 344 rats [2]; CCl4 120 mg/kg i.p., 2 h): 0.48 ng/mL
Free 8-iso-PGF2a (by GC-MS) (Male Fisher 344 rats [2]; CCl4 120 mg/kg i.p., 7 h): 0.34 ng/mL
Free 8-iso-PGF2a (by GC-MS) (Male Fisher 344 rats [2]; CCl4 120 mg/kg i.p., 16 h): 0.27 ng/mL
Free 8-iso-PGF2a (by GC-MS) (Male Fisher 344 rats [2]; CCl4 1200 mg/kg i.p., 2 h): 1.80 ng/mL
Free 8-iso-PGF2a (by GC-MS) (Male Fisher 344 rats [2]; CCl4 1200 mg/kg i.p., 7 h): 1.27 ng/mL
Free 8-iso-PGF2a (by GC-MS) (Male Fisher 344 rats [2]; CCl4 1200 mg/kg i.p., 16 h): 0.74 ng/mL
increase of free plasma 8-iso-PGF2α (Male Fisher 344 rats [2]; high dose CCl4, 2 hours): 18 fold
increase of free plasma 8-iso-PGF2α (Male Fisher 344 rats [2]; high dose CCl4, 7 hours): 10 fold
increase of free plasma 8-iso-PGF2α (Male Fisher 344 rats [2]; high dose CCl4, 16 hours): 7 fold
plasma MDA with LPO-586 reagents, 3rd derivative analysis (Male Fisher 344 rats [3]): significant increase was found only for the early time points
Comet assay: % migrated DNA, tail length, tail moment (Male Fisher 344 rats [4]): statistically significant increase only at the low dose of CCl4 at 16 hours
